Experimental data published in paper PMC8916643, “Molecular physiology of pumiliotoxin sequestration in a poison frog” (PLoS ONE, 2022).

Assays:
[1] = Alkaloid feeding experiment, alkaloid abundance in tissues by LC-MS/MS; type: in vivo, Dendrobates tinctorius; details: DHQ+PTX feeding group; fed orally daily for five days
Text: (§1) Lab-reared (non-toxic) Dendrobates tinctorius were housed in terraria with live plants, a water pool, and a shelter. Ten adult females were size-matched, randomly assigned to control or experimental groups (N = 5 per group), and then housed individually. To measure the specific effects of PTX 251D compared to a background toxicity, the control group was fed 0.01% DHQ (Sigma-Aldrich, St. Louis, USA) in a solution of 1% EtOH and the experimental group was fed a solution of 0.01% DHQ and 0.01% PTX 251D (PepTech, Burlington, MA, USA) in a solution of 1% EtOH in water. Each frog was fed 15 μL each day for five days by pipetting the solution directly into the mouth between 10am-12pm. On the afternoon of the fifth day, frogs were euthanized by cervical transection and the dorsal skin, liver, intestines, and oocytes were dissected into Trizol (Thermo Fisher Scientific, Waltham, USA).
To isolate alkaloids, 0.3 mL of 100% EtOH was added to 1mL of organic layer from the Trizol RNA extraction, inverted 10 times, and stored at room temperature for 2–3 minutes to precipitate genomic DNA, which was pelleted by centrifugation at 2000g for 5 minutes at 4°C. Then, 300 μL of supernatant was transferred to a new microfuge tube. Proteins were precipitated by adding 900 μL of acetone, mixing by inversion for 10–15 seconds, incubating at room temperature for 10 min, and centrifuging at max speed for 10 min at 4°C. Then, 1 mL of the supernatant containing alkaloids was moved into a glass vial and stored at -20°C until dried down completely under a gentle nitrogen gas flow.
Samples were resuspended in 200 μl of methanol:chloroform 1:1 and 1 μM Nicotine-d3 (used as an internal standard). A 10-point standard curve was prepared in the same solution with DHQ and PTX 251D. A QE+ mass spectrometer coupled to an Ultimate3000 LC (ThermoFisher) was used for analysis. […] The gradient was 0% B for 1 min, then increased to 100% B in 14 min, followed by 5 min at 100% B and 3.5 min at 0% B. Data were quantified using accurate mass, using the standard curve for DHQ and PTX 251D for absolute quantification. aPTX 267A was identified by accurate mass and MS/MS fragmentation similarity to PTX.
R version 3.6.3 was used for all statistical analyses, and all plotting and statistics code is provided in a S1 File. There were instances in the LC-MS/MS data where the molecules of interest (DHQ, PTX 251D, or aPTX 267A) were not detected, and these were converted to zeros prior to statistical analyses and visualization. […] PTX 251D and DHQ were analyzed separately. The abundance of aPTX 267A was approximated using the area-under-the-curve divided by the internal nicotine standard, and as there is no standard for aPTX 267A, exact pmol values could not be calculated. […]

[2] = test system: gene expression in intestines, liver, and skin; experiment: RNA sequencing, differential gene expression after PTX 251D feeding; type: in vivo, Dendrobates tinctorius
Text: as §1, with “On the afternoon of the fifth day, frogs were euthanized by cervical transection and the dorsal skin, liver, intestines, and oocytes were dissected into Trizol (Thermo Fisher Scientific, Waltham, USA).” left out
RNA extraction followed the Trizol (Thermo Fisher Scientific, Waltham, MA, USA) protocol outlined in Caty et al. 2019 [16] and according to the manufacturer’s instructions. […] Libraries were quantified with quantitative PCR (NEBnext Library quantification kit, New England Biolabs, Ipswich, USA) and a Agilent Bioanalyzer High Sensitivity DNA chip, both according to manufacturer’s instructions. All libraries were pooled at equimolar amounts and were sequenced on four lanes of an Illumina HiSeq 4000 machine to obtain 150 bp paired-end reads. […]

[3] = test system: mammalian and insect voltage-gated sodium and potassium channels; set-up: method as in PMID 18061227; details: 100 μM; strongest effect on hKv1.3; cited from earlier work

## CCCCC(C)C=C1CN2CCCC2C(C)(O)C1 (stereo not shown) [PTX 251D, pumiliotoxin (PTX 251D)]
[1]
  PTX 251D abundance by tissue and treatment: highest levels in the liver and skin
[2]; intestines of frogs fed PTX 251D
  expression of CYP2D6-like contig: upregulated
[2]; intestines, DHQ+PTX vs DHQ
  CYP3A29 expression log2FC: 5.72
[3]
  effect on voltage-gated sodium and potassium channels: inhibits both types of channels
